Laboratory results from patent US8664277B2, “Compounds and methods for PKCθ inhibition” (Complegen Partners, LLC, priority 2008, dated 2014).
Read-outs that look alike come from different tables or passages of the source.

Key:
Format in all cases: cell-based
Human PKC theta = target: T1, Human PKC theta (Homo sapiens, UniProt Q04759); experiment: XenoGene yeast growth inhibition, yeast containing human PKC theta gene
T1 construct: expressed in transfected cells; host or cells: yeast (XenoGene strain)
Source text: Using the XenoGene™ system described within, compounds inhibiting PKCθ are identified. The XenoGene™ system is a technology developed and patented by CompleGen wherein genes (“XenoGenes”™) from a target organism (e.g. humans) are used to functionally replace essential genes of a simple organism (yeast). These modified yeast are used to select compounds that act specifically on the protein encoded by the target gene and eliminate compounds that are not specific. […]

PKC eta = target: T2, PKC eta (Homo sapiens, UniProt P24723); experiment: XenoGene counter-screen, PKC eta; conditions: inverse of (PKC-theta IC50)/(PKC-X IC50)
T2 construct: expressed in transfected cells; host or cells: yeast (XenoGene strain)
Experimental: (§1) To identify compounds as being selective PKC theta inhibitors the IC50 values are determined against XenoGene™ strains containing other XenoGenes™, especially certain other PKC genes (see Example 10).
(§2) Human PKC theta gene (cDNA) was used to generate a XenoGene™ system as previously described (U.S. Pat. Nos. 6,998,261, 6,232,074), which was used to screen compounds in a chemical compound library. XenoGene™ systems used as counter-screens were constructed similarly using the gene for the appropriate counter-screen target. In particular, human genes (cDNA) encoding PKC delta, PKC eta and PKC epsilon were used to generate XenoGene™ systems.

yeast PKC1 = target: T3, yeast PKC1 (Saccharomyces cerevisiae, UniProt P24583); experiment: XenoGene counter-screen, yeast PKC1; conditions: inverse of (PKC-theta IC50)/(PKC-X IC50)
T3 construct: endogenous in cells; host or cells: yeast control strain
T3 sequence (P24583 1-1151): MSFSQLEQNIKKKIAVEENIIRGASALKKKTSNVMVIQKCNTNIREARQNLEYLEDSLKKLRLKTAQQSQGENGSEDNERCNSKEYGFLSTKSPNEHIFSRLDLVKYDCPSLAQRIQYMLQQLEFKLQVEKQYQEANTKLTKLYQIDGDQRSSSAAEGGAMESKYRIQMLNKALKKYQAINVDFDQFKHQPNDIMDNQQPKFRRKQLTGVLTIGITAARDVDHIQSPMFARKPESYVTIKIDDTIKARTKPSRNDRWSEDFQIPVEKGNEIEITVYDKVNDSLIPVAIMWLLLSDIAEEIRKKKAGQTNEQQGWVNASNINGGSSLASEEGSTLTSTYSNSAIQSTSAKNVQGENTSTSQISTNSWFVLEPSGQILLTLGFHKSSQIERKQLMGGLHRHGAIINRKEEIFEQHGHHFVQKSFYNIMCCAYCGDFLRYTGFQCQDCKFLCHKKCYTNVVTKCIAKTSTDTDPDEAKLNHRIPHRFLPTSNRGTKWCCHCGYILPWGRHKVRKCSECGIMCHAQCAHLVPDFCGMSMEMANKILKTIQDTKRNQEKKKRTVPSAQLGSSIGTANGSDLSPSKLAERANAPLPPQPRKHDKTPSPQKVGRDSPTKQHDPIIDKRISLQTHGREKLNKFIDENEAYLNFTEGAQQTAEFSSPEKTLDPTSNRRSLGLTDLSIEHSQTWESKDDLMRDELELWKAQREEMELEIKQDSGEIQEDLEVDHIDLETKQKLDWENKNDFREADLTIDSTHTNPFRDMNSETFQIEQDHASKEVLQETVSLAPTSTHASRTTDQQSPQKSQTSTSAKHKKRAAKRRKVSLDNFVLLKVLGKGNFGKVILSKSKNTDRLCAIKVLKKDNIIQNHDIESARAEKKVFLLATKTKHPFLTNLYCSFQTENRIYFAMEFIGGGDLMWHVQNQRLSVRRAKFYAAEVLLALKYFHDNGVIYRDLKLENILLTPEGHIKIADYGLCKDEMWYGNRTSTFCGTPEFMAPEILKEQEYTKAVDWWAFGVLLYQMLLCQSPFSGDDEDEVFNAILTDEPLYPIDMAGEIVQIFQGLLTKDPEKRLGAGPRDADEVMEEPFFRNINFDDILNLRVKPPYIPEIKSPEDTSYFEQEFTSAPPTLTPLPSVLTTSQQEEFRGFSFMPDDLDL
Source text: Using the XenoGene™ system described within, compounds inhibiting PKCθ are identified. The XenoGene™ system is a technology developed and patented by CompleGen wherein genes (“XenoGenes”™) from a target organism (e.g. humans) are used to functionally replace essential genes of a simple organism (yeast). These modified yeast are used to select compounds that act specifically on the protein encoded by the target gene and eliminate compounds that are not specific. XenoGene™ constructs provide a very high throughput screening system that allows identification of compounds active on the function of the target protein in a cell under physiological conditions on “first-pass” screening and further, to selectively counter-screen against 200 human targets or more if necessary. […] The relative potencies of the active compounds is determined by titration to find the concentration of compound providing 50% inhibition of growth (IC50) against the yeast containing the target gene (Table 1).
as §2

PKC epsilon = target: T4, PKC epsilon (Homo sapiens, UniProt Q02156); experiment: XenoGene counter-screen, PKC epsilon; conditions: inverse of (PKC-theta IC50)/(PKC-X IC50)
T4 construct: expressed in transfected cells; host or cells: yeast (XenoGene strain)
T4 sequence (Q02156 1-737): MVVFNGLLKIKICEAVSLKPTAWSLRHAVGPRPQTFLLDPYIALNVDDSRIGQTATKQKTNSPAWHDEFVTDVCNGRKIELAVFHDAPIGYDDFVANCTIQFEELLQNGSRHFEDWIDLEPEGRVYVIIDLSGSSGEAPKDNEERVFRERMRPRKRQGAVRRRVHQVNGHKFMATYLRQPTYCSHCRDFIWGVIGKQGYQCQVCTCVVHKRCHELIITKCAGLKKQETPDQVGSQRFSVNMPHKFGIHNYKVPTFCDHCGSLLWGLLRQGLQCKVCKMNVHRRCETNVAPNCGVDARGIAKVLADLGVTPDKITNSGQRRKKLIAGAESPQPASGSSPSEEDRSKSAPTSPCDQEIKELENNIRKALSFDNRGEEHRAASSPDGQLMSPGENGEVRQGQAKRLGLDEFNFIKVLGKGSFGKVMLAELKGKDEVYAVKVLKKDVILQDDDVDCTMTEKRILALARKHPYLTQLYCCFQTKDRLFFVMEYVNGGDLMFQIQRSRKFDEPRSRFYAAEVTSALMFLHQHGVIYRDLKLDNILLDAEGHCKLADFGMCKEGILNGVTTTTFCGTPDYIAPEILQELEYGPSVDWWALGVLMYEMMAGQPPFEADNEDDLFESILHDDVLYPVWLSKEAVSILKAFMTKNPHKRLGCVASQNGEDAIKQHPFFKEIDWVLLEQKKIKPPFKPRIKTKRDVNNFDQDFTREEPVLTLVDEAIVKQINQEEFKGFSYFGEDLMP
Experimental: as §1, §2

PKC delta = target: T5, PKC delta (Homo sapiens, UniProt Q05655); experiment: XenoGene counter-screen, PKC delta; conditions: inverse of (PKC-theta IC50)/(PKC-X IC50)
T5 construct: expressed in transfected cells; host or cells: yeast (XenoGene strain)
Experimental: as §1, §2

[1] = 50% inhibition of growth of yeast containing the target gene, read-out: IC50
[2] = XenoGene system, read-out: PKC-theta IC50

T1 sequence (Q04759 whole entry): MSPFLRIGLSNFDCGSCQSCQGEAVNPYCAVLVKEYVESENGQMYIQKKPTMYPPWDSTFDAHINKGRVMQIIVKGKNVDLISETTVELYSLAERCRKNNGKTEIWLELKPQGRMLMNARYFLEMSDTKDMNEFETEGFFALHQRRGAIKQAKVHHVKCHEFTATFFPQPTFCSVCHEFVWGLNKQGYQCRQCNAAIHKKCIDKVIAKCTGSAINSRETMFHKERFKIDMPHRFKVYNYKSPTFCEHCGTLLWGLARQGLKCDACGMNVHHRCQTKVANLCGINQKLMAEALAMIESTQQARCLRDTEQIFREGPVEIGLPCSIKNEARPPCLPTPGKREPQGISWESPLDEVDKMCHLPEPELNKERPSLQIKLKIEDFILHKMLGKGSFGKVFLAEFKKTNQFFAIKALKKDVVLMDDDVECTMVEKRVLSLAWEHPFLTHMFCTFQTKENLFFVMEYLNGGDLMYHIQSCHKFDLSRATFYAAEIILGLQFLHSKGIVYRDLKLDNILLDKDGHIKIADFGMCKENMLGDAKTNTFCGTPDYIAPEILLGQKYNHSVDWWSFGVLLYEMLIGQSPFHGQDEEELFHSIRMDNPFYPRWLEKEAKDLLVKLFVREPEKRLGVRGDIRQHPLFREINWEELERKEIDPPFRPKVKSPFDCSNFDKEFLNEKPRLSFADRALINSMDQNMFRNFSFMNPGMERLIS
T2 sequence (P24723 whole entry): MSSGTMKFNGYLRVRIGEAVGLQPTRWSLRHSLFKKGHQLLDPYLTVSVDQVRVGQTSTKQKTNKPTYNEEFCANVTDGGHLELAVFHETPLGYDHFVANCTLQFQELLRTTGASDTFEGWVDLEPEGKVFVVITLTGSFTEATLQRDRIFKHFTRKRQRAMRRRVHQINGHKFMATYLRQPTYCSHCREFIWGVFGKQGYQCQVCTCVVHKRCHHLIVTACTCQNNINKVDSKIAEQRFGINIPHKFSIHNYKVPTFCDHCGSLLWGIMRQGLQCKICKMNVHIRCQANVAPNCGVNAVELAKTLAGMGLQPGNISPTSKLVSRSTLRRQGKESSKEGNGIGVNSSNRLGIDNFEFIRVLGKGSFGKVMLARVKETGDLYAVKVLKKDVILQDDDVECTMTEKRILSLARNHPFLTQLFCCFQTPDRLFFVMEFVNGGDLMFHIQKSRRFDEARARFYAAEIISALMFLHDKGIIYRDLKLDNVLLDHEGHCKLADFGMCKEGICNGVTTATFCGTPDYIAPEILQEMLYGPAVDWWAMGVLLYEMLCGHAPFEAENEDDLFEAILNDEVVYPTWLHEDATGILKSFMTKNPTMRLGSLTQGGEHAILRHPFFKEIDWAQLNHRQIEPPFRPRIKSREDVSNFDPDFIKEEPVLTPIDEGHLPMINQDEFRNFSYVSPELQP
T5 sequence (Q05655 whole entry): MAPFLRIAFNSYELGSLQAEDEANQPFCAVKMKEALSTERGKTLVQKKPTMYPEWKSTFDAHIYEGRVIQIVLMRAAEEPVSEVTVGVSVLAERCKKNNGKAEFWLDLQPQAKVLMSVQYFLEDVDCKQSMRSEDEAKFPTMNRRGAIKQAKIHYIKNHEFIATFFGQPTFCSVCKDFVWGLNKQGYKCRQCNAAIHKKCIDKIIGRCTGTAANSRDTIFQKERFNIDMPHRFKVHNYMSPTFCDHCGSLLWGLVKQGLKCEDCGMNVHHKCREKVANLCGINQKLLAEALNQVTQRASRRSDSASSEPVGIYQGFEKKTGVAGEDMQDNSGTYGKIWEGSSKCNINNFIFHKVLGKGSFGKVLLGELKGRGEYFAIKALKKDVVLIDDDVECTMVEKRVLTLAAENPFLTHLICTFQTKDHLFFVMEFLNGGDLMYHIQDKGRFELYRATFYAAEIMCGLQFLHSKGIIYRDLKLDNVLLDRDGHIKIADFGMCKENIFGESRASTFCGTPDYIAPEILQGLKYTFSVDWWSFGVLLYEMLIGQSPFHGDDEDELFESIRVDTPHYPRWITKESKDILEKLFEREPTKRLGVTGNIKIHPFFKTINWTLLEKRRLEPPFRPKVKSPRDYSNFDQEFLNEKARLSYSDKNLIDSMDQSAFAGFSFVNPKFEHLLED

Row | Compound | IC50 (Human PKC theta; [1]) [µM] | also measured
1 | Nc1ccc(Oc2ccccc2C(=O)O)cc1 [Compound 553] | > 10 | –
2 | CCC(C)(C)c1ccc(Oc2ccc(N)cc2)cc1 [Compound 730] | < 1 | –
3 | Nc1ccc(Oc2ccc(C(F)(F)F)cc2)cc1 [Compound 733] | 1 to 10 | –
4 | CC(C)(C)c1ccc(Sc2ccc(N)cc2)cc1 [Compound 740] | < 1 | Selectivity for PKC-theta v. PKC-eta (PKC eta): 3.0; Selectivity for PKC-theta v. yeast PKC1 (yeast PKC1): 80; IC50 (Human PKC theta; [2]): 0.05 µM; Selectivity for PKC-theta v. PKC-epsilon (PKC epsilon): 12; Selectivity for PKC-theta v. PKC-delta (PKC delta): 26
5 | Nc1ccc(Sc2ccc(C(F)(F)F)cc2)cc1 [Compound 741] | < 1 | Selectivity for PKC-theta v. PKC-eta (PKC eta): 4.0; Selectivity for PKC-theta v. yeast PKC1 (yeast PKC1): 32; IC50 (Human PKC theta; [2]): 0.25 µM; Selectivity for PKC-theta v. PKC-epsilon (PKC epsilon): 16; Selectivity for PKC-theta v. PKC-delta (PKC delta): 8.0
6 | CC(C)c1ccc(Oc2ccc(N)cc2)cc1 [Compound 742] | < 1 | –
7 | CCCc1ccc(Oc2ccc(N)cc2)cc1 [Compound 745] | < 1 | –
8 | Nc1ccc(Oc2ccc(C(F)(F)F)cc2Br)cc1 [Compound 747] | < 1 | –
9 | CC(C)(C)c1ccc(S(=O)(=O)c2ccc(N)cc2)cc1 [Compound 749] | 1 to 10 | –
10 | CC(C)(C)c1ccc(S(=O)(=O)c2ccc(N)cc2)cc1 [Compound 750] | > 10 | –
11 | Nc1ccc([S+]([O-])c2ccc(C(F)(F)F)cc2)cc1 (centres unmarked) [Compound 751] | > 10 | –
12 | Nc1ccc(S(=O)(=O)c2ccc(C(F)(F)F)cc2)cc1 [Compound 753] | 1 to 10 | –
13 | Nc1ccc(Oc2ccc(C3CCCC3)cc2)cc1 [Compound 761] | < 1 | –
